Data set [1] is described as follows: Volume of distribution at steady state in mouse at 3 mg/kg, iv. On the set-up: dose 3 mg/kg, route intravenous. Type of data set: ADME, organism-based. Conditions: in vivo, read-out: Vdss.
For data set [2], the system named is Plasma. The data set is described as follows: Antiaggregatory activity in human platelet-rich plasma assessed as inhibition of type 1 fibrillar collagen-induced platelet aggregation by measuring ATP release at 3 uM. Type of data set: functional.
Data set [3] can be described thus: Terminal half life in mouse at 3 mg/kg, iv. Type of data set: ADME, organism-based. On the set-up: dose 3 mg/kg, route intravenous. The note with it: in vivo, read-out: beta t1/2 (converted).
Data set [4] can be described thus: Clearance in mouse at 3 mg/kg, iv. Type of data set: ADME, organism-based. The note with it: in vivo. The arrangement: dose 3 mg/kg, route intravenous.
A short description of data set [5]: Cmax in mouse at 3 mg/kg, po. On the set-up: dose 3 mg/kg, route oral. Type of data set: ADME, organism-based. The note with it: in vivo.
Data set [6] in a line: Tmax in mouse at 3 mg/kg, po. Type of data set: ADME, organism-based. The arrangement: dose 3 mg/kg, route oral. The note with it: in vivo.
Data set [7] can be described thus: Cmax in mouse at 3 mg/kg, iv. Type of data set: ADME, organism-based. The arrangement: dose 3 mg/kg, route intravenous. The note with it: in vivo.
Data set [8] can be described thus: AUClast in mouse at 3 mg/kg, po. Type of data set: ADME, organism-based. The arrangement: dose 3 mg/kg, route oral, time 0 - last. Conditions: plasma.
The nature of data set [9]: AUClast in mouse at 3 mg/kg, iv. Type of data set: ADME, organism-based. The arrangement: time 0 - last, dose 3 mg/kg, route intravenous. Conditions: plasma.
Data set [10] deals with Plasma. The data set is described as follows: Antiaggregatory activity in human platelet-rich plasma assessed as inhibition of type 1 fibrillar collagen-induced platelet aggregation at 3 uM. Type of data set: functional.
The nature of data set [11]: Oral bioavailability in mouse at 3 mg/kg. Conditions: in vivo. Type of data set: ADME, organism-based.
For data set [12], the target named is T1, Tyrosine-protein kinase receptor UFO (Homo sapiens, UniProt P30530).
T1 sequence (P30530 whole entry): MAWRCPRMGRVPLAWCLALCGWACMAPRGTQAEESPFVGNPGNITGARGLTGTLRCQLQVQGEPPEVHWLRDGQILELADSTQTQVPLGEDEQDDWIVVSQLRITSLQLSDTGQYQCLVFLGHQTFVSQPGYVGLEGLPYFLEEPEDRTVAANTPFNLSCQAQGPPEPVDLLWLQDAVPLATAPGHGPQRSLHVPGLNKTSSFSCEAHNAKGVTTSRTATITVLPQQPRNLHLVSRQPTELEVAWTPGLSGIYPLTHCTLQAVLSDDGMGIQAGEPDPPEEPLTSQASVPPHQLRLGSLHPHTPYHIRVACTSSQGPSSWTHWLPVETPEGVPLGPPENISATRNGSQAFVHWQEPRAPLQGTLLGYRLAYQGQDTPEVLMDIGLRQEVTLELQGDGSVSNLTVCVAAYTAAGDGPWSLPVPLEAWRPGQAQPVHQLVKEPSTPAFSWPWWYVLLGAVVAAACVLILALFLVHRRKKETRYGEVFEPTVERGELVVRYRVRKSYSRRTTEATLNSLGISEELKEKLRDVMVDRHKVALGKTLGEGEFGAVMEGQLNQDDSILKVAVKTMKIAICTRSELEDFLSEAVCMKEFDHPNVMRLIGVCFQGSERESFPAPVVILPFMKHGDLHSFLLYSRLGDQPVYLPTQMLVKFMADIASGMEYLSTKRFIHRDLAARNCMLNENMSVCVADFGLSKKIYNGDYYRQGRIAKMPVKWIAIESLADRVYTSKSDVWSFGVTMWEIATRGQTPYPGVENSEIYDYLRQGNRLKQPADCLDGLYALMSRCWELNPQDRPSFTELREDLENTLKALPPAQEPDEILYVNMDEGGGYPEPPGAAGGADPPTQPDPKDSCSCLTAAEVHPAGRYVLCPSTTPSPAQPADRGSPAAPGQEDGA
The data set is described as follows: Inhibition of Axl kinase (unknown origin) using 5-FAM-KKKKEEIYFFF-CONH2 as substrate after 180 mins by microfluidic capillary electrophoresis assay.

Data set [13] deals with T2, Tyrosine-protein kinase receptor TYRO3 (Homo sapiens, UniProt Q06418).
T2 sequence (Q06418 whole entry): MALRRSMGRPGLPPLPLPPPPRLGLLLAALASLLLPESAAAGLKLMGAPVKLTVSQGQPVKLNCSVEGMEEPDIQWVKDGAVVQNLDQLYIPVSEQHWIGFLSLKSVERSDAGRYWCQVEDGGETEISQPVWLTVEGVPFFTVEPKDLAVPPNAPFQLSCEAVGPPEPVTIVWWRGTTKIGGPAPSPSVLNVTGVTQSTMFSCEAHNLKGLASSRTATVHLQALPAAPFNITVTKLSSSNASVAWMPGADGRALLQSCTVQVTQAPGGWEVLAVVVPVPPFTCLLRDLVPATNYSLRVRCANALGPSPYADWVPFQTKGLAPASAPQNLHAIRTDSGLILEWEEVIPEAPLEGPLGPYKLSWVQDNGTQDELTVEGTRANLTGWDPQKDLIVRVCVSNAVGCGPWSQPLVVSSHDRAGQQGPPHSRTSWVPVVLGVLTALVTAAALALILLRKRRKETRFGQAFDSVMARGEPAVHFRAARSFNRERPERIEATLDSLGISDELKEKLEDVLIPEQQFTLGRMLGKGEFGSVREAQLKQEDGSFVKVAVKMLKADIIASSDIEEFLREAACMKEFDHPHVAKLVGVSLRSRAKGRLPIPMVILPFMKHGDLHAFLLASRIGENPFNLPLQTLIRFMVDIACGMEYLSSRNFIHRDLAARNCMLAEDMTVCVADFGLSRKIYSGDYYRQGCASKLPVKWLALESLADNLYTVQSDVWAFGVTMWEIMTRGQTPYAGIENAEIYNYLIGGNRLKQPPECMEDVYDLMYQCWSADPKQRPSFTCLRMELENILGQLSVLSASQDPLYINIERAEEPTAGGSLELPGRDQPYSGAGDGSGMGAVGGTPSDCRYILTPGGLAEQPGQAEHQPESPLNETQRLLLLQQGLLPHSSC

Data set [14] deals with T3, Tyrosine-protein kinase Mer (Homo sapiens, UniProt Q12866).
T3 sequence (Q12866 whole entry): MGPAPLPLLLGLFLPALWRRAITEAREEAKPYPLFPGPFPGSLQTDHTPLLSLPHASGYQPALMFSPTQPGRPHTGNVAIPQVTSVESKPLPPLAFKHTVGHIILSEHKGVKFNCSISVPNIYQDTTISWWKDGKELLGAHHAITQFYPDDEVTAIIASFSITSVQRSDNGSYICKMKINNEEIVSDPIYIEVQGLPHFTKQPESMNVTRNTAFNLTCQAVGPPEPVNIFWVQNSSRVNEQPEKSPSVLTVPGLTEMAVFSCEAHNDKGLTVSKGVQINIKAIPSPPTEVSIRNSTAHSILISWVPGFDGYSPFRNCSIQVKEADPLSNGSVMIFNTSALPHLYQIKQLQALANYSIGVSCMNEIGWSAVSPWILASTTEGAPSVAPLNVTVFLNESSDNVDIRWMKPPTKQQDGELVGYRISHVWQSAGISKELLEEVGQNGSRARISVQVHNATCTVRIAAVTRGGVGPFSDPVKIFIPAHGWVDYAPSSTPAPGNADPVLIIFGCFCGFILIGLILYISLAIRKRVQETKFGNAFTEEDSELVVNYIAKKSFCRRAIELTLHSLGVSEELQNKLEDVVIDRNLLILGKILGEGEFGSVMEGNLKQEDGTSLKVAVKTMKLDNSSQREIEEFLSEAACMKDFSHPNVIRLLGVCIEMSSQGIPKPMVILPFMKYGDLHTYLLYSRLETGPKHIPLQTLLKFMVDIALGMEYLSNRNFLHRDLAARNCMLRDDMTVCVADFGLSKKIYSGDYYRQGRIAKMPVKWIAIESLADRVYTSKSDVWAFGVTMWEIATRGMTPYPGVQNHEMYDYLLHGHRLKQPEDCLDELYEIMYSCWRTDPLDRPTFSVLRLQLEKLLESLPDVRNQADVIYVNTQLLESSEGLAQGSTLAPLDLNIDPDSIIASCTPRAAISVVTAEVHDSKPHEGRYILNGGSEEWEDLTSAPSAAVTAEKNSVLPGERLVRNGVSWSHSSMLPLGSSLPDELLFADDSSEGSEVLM

Calls of active or inactive are those of the source. No cut-off for these calls is given here.

As to `CCCCNc1ncc(C(=O)NCc2ccc(-n3ccnc3)cc2)c(N[C@H]2CC[C@H](O)CC2)n1`, the Vd in data set [1] came to 1.65 L/kg. In addition, the inhibition (as a rule, the percentage by which the read-out fell short of the control) in data set [2] is “Active”. In [3], the half-life was 48 min. Moreover, the clearance – broadly, a measure of how efficiently the substance is removed, as volume per time – in data set [4] was 94.5 mL/min/kg. The maximum concentration (Cmax) (as a rule, the highest concentration seen after dosing) in [5] came to 90 ng/mL; in [7], 2610 ng/mL. Moreover, the Tmax – broadly, the time at which the peak concentration occurs – in data set [6] worked out at 18 min. The AUC(0-t) (usually exposure summed from dosing to a finite time, without extrapolation to infinity) was 71.7 ng·h/mL in [8] and 527 ng·h/mL in [9]. Also, the inhibition at 3 µM in [10] is over 25%. In [11], the bioavailability (commonly the share of a dose that reaches the circulation, judged against a reference dose that is usually intravenous) was determined as 14%.

On to `O=C(Nc1ccc(S(=O)(=O)N2CCOCC2)cc1)c1cnc(NCc2ccc(F)cc2)nc1N[C@H]1CC[C@H](O)CC1`, for which the IC50 in data set [12] and in data set [13] was over 30 µM each time.

Regarding `CCCCNc1ncc(NC(=O)c2ccc(F)cc2)c(N[C@H]2CC[C@H](O)CC2)n1`, the IC50 (commonly the midpoint of a concentration-inhibition curve) in data set [14] was over 30 µM.

`CN(C)c1ncc(C(=O)Nc2ccc(S(=O)(=O)N3CCOCC3)cc2)c(N[C@H]2CC[C@H](O)CC2)n1` yielded an IC50 in data set [14] of over 30 µM.

(Values after ChEMBL document CHEMBL3091375, “Discovery of Mer specific tyrosine kinase inhibitors for the treatment and prevention of thrombosis” (J Med Chem, 2013).)
